Results from patent US20110152373A1, “HAIR GROWTH PROMOTING AGENT CONTAINING 15,15-DIFLUOROPROSTAGLANDIN F2ALPHA DERIVATIVE AS ACTIVE INGREDIENT” (SANTAN PHARMACEUTICAL CO., LTD., priority 2008, published 2011).

Test system: eyelashes of patients with open-angle glaucoma or ocular hypertension
Assay: European Phase III clinical trial: eyelash findings from photographs compared with base line
Format: in vivo, human
Conditions: for Color of eyelashes was changed (number of patients with finding) / Eyelashes were grown (number of patients with finding) / Eyelashes were made thicker (number of patients with finding): eye drop (0.0015% tafluprost or 0.005% latanoprost) once a day, one drop, total 264 patients per group
Description: A European Phase III clinical trial for tafluprost, one of the 15,15-difluoroprostaglandin F2α derivatives, with patients with open-angle glaucoma or ocular hypertension was performed by the following test method, and tafluprost was evaluated for findings associated with the eyelashes and an peripheral area thereof, that is, the evaluation was performed as to whether eyelashes were grown, eyelashes were made thicker, and the color of eyelashes was changed by the following evaluation method.
Patients with open-angle glaucoma or ocular hypertension were randomly allocated to two groups (a 0.0015% tafluprost eye drop group and a 0.005% latanoprost eye drop group) and received the eye drop once a day at a dose of one drop for 24 months in a double-blind manner after a washout period for 5 days to 4 weeks or more according to need prior to the glaucoma medication.
The eyelashes and eyelids were photographed at 0 (base line), 3, 6, 12, 18, and 24 months, and the photographs were compared with the base line, and the presence or absence of findings (eyelashes were grown, eyelashes were made thicker, and the color of eyelashes was changed) was confirmed.

| SMILES | Color of eyelashes was changed (number of patients with finding) (24 months) | Eyelashes were grown (number of patients with finding) (24 months) | Eyelashes were made thicker (number of patients with finding) (24 months) | Effect of promoting the growth of hair (eyelashes), in words (0.0015% eye drop once a day for 24 months, conclusion from Table 1) | Eyelash actions compared with those of latanoprost, in words (0.0015% tafluprost eye drop vs 0.005% latanoprost eye drop, 24 months) |
| --- | --- | --- | --- | --- | --- |
| CC(C)OC(=O)CCC/C=C\C[C@@H]1[C@@H](CC[C@@H](O)CCc2ccccc2)[C@H](O)C[C@@H]1O [Latanoprost, latanoprost, reference compound] | 10 patients | 11 patients | 4 patients |  |  |
| CC(C)OC(=O)CCC/C=C\C[C@@H]1[C@@H](/C=C/C(F)(F)COc2ccccc2)[C@H](O)C[C@@H]1O [Tafluprost, tafluprost] | 13 patients | 17 patients | 5 patients | has actions of growing eyelashes, making eyelashes thicker, and changing the color thereof | significant effects as compared with those of latanoprost |
